Reference: US11266710B2, “Angio-3 for treatment of retinal angiogenic diseases” (SINGAPORE HEALTH SERVICES PTE LTD, priority 2017, dated 2022)

System: laser-induced CNV in C57/BL6J (B6J) wild type mice
Test: Laser-induced choroidal neovascularization (CNV) model in mice, area of leakage by FFA
Format: in vivo
Conditions: for Area of Leakage (mean) Week 1 / Area of Leakage (mean) Week 4: laser-induced CNV mice; for % Reduction (area of leakage): vehicle control = 0%
Method: FIG. 3A is a schematic of the experimental design on the efficacy of Angio-3 in a laser-induced choroidal neovascularization (CNV) model in mice (B6J WT mice). FIG. 3B are FFA images of baseline and at different time points post treatment. IV single injection of 100 μL of Angio-3 (25 mg/Kg Bwt) was given at Day 0 (prevention mode) and 4 days after laser (regression mode) and followed for 10 weeks. FIG. 3C is a graph showing the area of leakage by each eye for various groups. FIG. 3D are graphs of the mean area of leakage of all batches for each group. […] The attenuation retinal vascularization was better than scrambled peptide. n=6 eyes per batch; n=3 batches. Values are expressed as means±s.e.m., **P<0.01, *P<0.05, student's t-test. FIG. 3E is a graph of the result of the Retinal Function Test that measures ERG changes in Angio-3 treated and control.
FIG. 4A is a schematic of the experimental design on the efficacy of Angio-3 by IVT administration. […]
FIG. 11 A are FFA images of baseline and at different time points post treatment. Mice received single IVT injection of Angio-3 (at a dose of 1 μg in 1 μl or 100 ng in 1 μl), and chemically modified Angio-3 peptides Pep-N (at doses of 5 μg in μl; 1 μg in μl; and 100 ng in 1 μl, respectively) and Pep-Q peptides (at doses of 5 μg in μl; 1 μg in μl; and 100 ng in 1 μl, respectively). FIG. 11 B is a graph of the area of leakage by each eye. Single dose attenuates retinal angiogenesis in laser-induced mice CNV model via IVT route till 4 weeks. […] Eylea is the positive control. n=18 eyes per group; Values are expressed as means±s.e.m. n=3 independent experiment, **P<0.01, *P<0.05, student's t-test.
Laser induced choridal neo-vascularization (CNV) in C57/BL6J (B6J) wild type mice (n=90).
In B6J mice, single injection of 100 μl volume at 25 mg/kg Bwt concentration Angio-3 was injected via intravenous (i/v) route and this was tested in both Preventive mode (before laser) and Regression mode (4 days after laser). […]
Angio-3 was also injected via intravitreal (IVT) route, single injection of 1 μl volume at 2 different doses; 1 μg (High dose) and 100 ng (Low dose).
4 laser photocoagulation sites were placed concentrically around the optic disc of both eyes to induce CNVs. A diode laser (810 nm) was used with a relative potency scale of 120 mW for mice and 250 mW for rats, an exposure time of 0.05 s, and a spot size of […]. Laser spots were focused with crystal covers to avoid laser beam dispersion. Bubble formation was confirmed the rupture of Bruch's membrane.
Fundus photography and fundus fluorescein angiography (FFA) was imaged using a MICRON IV fundus camera (Phoenix Laboratories USA). For FFA, animals were intraperitoneally injected with 10% sodium fluorescein at a dose of 0.01 ml per 5-6 gm body weight.
In B6J mice, single intravitreous (IVT) injection of 100 ng, 1 μg, 5 μg PEP-Q, PEP-N (modified Angio-3), Angio-3 and Eylea were executed and this was tested in Prevention mode (before laser) Method of Llser induced CNV model and injection was described as above.

[1] = 100 ng single IVT, prevention mode
[2] = 1 μg single IVT, prevention mode
[3] = 5 μg single IVT, prevention mode

Eylea: Eylea (anti-VEGF), positive control; clinical compound [reference compound]
Area of Leakage (mean) Week 1 [1]: 10273.37
Area of Leakage (mean) Week 4 [1]: 3433.52
% Reduction (area of leakage) (100 ng single IVT): 28.40%
Area of Leakage (mean) Week 1 [2]: 12502.09
Area of Leakage (mean) Week 4 [2]: 3005.85
% Reduction (area of leakage) (1 μg single IVT): 37.77%
Area of Leakage (mean) Week 1 [3]: 11724.39
Area of Leakage (mean) Week 4 [3]: 1834.08
% Reduction (area of leakage) (5 μg single IVT): 46.17%
choroidal angiogenesis (B6J mice, single intravitreal injection at dose 100 ng, 1 g, and 5 μg, prevention mode): superior efficacy that is similar to PEP-Q and PEP-N
